16 compounds from patent publication US11319343B2, “Method of treatment” (ROYAL MELBOURNE INSTITUTE OF TECHNOLOGY, priority 2017, dated 2022) can be followed below.

Residues, ends and D or L forms follow the SMILES beside them. No end group written: not given here.

The test system of data set [1] is mouse primary alveolar macrophages. It is filed as cell-based.
In data set [2] the target is T1, TLR7 (Mus musculus, UniProt P58681).
T1 construct: endogenous in cells; host or cells: immortalized bone marrow-derived macrophages (BMDMs) or RAW264.7 cells
T1 sequence (P58681 27-1050): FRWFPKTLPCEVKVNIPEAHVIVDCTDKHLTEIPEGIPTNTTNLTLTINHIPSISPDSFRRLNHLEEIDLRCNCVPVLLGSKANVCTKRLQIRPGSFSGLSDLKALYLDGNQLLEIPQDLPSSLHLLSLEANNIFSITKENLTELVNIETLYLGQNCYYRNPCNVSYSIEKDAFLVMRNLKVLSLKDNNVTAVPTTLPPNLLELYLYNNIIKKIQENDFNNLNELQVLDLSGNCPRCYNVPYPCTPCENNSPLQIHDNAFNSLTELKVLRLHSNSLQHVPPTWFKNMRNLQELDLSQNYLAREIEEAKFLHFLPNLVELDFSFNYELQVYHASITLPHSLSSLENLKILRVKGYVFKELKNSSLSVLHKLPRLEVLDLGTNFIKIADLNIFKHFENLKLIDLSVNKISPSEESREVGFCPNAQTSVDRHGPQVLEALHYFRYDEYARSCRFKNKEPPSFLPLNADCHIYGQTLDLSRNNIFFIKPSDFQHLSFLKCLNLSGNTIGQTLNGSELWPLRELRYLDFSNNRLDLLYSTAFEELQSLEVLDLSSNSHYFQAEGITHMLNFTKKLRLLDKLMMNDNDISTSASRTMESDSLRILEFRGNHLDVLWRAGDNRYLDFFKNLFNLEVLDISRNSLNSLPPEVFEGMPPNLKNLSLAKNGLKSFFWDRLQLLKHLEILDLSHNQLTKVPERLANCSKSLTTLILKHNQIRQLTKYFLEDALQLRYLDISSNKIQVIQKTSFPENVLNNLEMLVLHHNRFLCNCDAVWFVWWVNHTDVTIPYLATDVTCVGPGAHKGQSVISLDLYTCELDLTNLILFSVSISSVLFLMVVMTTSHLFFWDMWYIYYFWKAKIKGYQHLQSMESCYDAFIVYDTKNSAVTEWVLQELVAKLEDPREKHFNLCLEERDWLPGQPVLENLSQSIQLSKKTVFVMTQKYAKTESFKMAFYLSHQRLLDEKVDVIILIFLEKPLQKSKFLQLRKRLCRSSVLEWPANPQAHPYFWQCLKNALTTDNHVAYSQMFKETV
Put plainly: TLR7 agonist response (cytokine expression) in bone marrow derived macrophages with C98i peptides. It is filed as cell-based. As to conditions: for inhibition of TLR7 agonist, imiquimod, response in vitro (IL-6 mRNA expression): peptides 100 μM + 10 μg/ml imiquimod, no TAT.

A further data set concerns HKx31 influenza A virus. As to conditions: mouse, in vivo.
Data set [3] has as its target T1, TLR7. Format: cell-based. As to conditions: for IFN-β, IL-1β, TNF-α and IL-6 expression in response to imiquimod: apocynin 300 μM pre-treatment, SOD 300 U/mL (basal or imiquimod-stimulated), catalase 1000 U/mL.
In the next data set the test system is TLR3. It is filed as cell-based, mouse. As to conditions: poly I:C 25 μg/mL; apocynin pre-treatment.
In the next data set the test system is TLR9. Format: cell-based, mouse. The settings on record: CpG 10 μg/mL; apocynin.
For the next data set, the system named is NOX2 oxidase. Put plainly: NOX2 oxidase assembly (NOX2-p47phox association), confocal fluorescence microscopy. As to conditions: pre-treatment: Dynasore 100 μM, bafilomycin A 100 nM, PD98059 30 μM.
Another data set addresses T2, xanthine oxidase (Bos taurus, UniProt P80457).
T2 construct: purchased Sigma X1875
The data set can be described thus: Xanthine/xanthine oxidase cell-free superoxide assay (ROS scavenging). It is filed as biochemical. As to conditions: 1 μM. How it is done: Briefly, Krebs-HEPES buffer containing L-O12 (100 μM) was added into a 96-well Optiview plate. Following this, 0.1% w/v DMSO, unconjugated gp91dstat (Ugp91ds-TAT, 1 μM) or cholestanol-conjugated gp91ds-TAT (1 μM) were added in combination with Xanthine (100 μM). Immediately after xanthine oxidase (0.03 U/mL) was added, photon emission [relative light units (RLU)/s] was detected using the Chameleon (Trademark) luminescence detector (Hidex, model 425105, Finland) and recorded from each well for 1 s over 60 cycles. Individual data points for each group were derived from the average values of the three replicates minus the respective blank controls. Data are represented as raw values.

The subject of data set [4] is influenza A virus strain HKx31 (H3N2). It is filed as cell-based.
The nature of data set [5]: Cell viability after C98i peptides. Format: cell-based.
In the next data set the test system is PKC. The data set can be described thus: Cytosolic PKC activity, FRET biosensor cytoCKAR. Format: cell-based, mouse. The settings on record: WT macrophages, imiquimod, within 5 min.
The subject of the next data set is pERK1/2. The data set can be described thus: Cytosolic pERK1/2 activity, FRET biosensor. It is filed as cell-based, mouse. As to conditions: TLR7-dependent manner.
In data set [6] the test system is macrophage mitochondrial superoxide. Put plainly: Macrophage mitochondrial superoxide production. Format: cell-based. As to conditions: TLR7 activation with imiquimod.
Another data set concerns TLR7 responses. Format: in vivo. As to conditions: imiquimod 50 μg/mouse intranasally, 24 h.
Data set [7] has as its system human alveolar macrophages. It is filed as cell-based. The settings on record: imiquimod 10 μg/mL, AMs from human.
In data set [8] the test system is TLR7. Format: cell-based, mouse.

T2 sequence (P80457 whole entry): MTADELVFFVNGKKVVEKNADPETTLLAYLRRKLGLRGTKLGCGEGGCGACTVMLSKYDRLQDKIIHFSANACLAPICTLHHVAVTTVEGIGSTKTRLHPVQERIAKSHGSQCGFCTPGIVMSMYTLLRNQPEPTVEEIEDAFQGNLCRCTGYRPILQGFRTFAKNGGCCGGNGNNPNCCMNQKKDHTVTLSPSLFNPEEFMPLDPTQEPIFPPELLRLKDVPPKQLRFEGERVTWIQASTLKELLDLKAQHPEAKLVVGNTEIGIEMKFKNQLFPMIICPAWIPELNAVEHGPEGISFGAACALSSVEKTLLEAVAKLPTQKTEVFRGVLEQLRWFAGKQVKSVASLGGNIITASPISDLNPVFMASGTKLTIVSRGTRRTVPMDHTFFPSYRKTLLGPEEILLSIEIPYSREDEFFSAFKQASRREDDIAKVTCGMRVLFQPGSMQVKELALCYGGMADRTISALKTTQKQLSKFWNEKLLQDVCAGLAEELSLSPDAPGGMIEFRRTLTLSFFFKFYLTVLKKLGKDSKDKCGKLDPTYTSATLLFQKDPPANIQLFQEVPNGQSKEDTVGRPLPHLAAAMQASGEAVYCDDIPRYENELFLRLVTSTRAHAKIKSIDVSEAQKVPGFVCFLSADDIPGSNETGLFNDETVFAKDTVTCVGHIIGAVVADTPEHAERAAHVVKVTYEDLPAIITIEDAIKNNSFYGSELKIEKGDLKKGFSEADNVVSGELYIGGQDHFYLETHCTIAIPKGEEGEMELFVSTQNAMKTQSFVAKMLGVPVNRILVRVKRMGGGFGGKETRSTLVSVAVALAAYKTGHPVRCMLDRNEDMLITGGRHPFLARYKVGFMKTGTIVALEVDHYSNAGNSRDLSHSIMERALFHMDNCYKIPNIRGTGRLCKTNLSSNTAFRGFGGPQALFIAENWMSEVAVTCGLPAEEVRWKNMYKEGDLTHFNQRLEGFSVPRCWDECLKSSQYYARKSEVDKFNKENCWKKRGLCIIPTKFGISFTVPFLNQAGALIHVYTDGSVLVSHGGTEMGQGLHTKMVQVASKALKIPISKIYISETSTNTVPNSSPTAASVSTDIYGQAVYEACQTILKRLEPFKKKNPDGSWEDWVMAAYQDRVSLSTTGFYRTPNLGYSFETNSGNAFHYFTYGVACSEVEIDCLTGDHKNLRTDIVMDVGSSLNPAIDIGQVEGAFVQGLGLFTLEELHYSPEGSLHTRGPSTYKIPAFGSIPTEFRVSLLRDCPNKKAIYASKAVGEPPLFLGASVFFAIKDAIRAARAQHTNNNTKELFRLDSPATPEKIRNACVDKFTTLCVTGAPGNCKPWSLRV

With `CC(=O)c1ccc2c(c1)Nc1ccccc1S2` [ML171], the “endosomal ROS production (OxyBURST) in response to influenza A virus” value (shortened to “endosomal ROS production (OxyBURST)”) in data set [1] is given as “unaffected”.

Regarding RANA-NH2, the “inhibition of TLR7 agonist, imiquimod, response in vitro (IL-6 mRNA expression)” value (shortened to “inhibition of TLR7 agonist, imiquimod”) with TLR7 [2] is given as “none”.

As for “YGRKK-RRQRR-RCSTR-IRRQL-NH2 [Ugp91ds-TAT]”, in the data set on HKx31 influenza A virus, the “decrease in lung influenza A viral burden” value is ~10,000 fold, the “lung IFN-β mRNA levels compared to the control virus group” value is on record as “failed to do so”, the “superoxide production in BALF inflammatory cells” value is on record as “almost abolished” and the “weight loss caused by influenza A virus at day 3” value is recorded as “significantly reduced the weight loss”.

For the compound `COc1cc(C(C)=O)ccc1O` [apocynin, 4′-Hydroxy-3′-methoxy acetophenone], at TLR7 [3] (WT macrophages), the “IFN-β, IL-1β, TNF-α and IL-6 expression in response to imiquimod” value is reported as “significantly enhanced”. The “IFN-β, IL-1β, TNF-α and IL-6 expression in response to poly I:C” value in the data set on TLR3 is “suppressed”. The “increases in IFN-β, IL-1β, TNF-α and IL-6 triggered by CpG” value with TLR9 is recorded as “unaffected”.

As to `CO/C1=C\C(C)=C\[C@@H](C)[C@@H](O)[C@@H](C)C/C(C)=C/C=C/[C@H](OC)[C@@H]([C@@H](C)[C@@H](O)[C@H](C)[C@@]2(O)C[C@@H](O)[C@H](C)[C@@H](C(C)C)O2)OC1=O` [bafilomycin A], in [1], the “NOX2 dependent ROS production in response to virus infection and to imiquimod” value is listed as “abolished”; the “endosomal ROS production (OxyBURST)” value is “abolished the LysoTracker fluorescence and endosomal ROS production”. Moreover, the “co-location (association) of NOX2 and p47phox caused by influenza virus” value (“co-location (association)” below) in the data set with NOX2 oxidase is recorded as “reduced”.

For the compound “YGRKKRRQRRRCLVPNDCRLV-NH2 [scrambled C98i]”, in the data set with TLR7 [2] (scrambled sequence with TAT), the “inhibition of TLR7 agonist (imiquimod)” value is “not able to inhibit”.

Regarding “Ac-Asp(OChol)-PEG4-PEG3-PEG4-gp91-NH2 [Cgp91ds-TAT]”, in the data set with xanthine oxidase, the ROS scavenging properties result is given as “not attributed to enhanced ROS scavenging properties”. Also, in the data set on HKx31 influenza A virus, the airway inflammation result is given as “almost abolished”, the “decrease in lung influenza A viral burden” value is on record as ~10,000 fold, the “lung IFN-β mRNA levels compared to the control virus group” value is “significantly increased” and the “reduction in airways inflammation” value was around 40%. In the data set with HKx31 influenza A virus, the “superoxide production in BALF inflammatory cells” value is recorded as “almost abolished” and the “weight loss caused by influenza A virus at day 3” value was “significantly reduced the weight loss”.

For `COc1cccc(-c2cc(=O)c3ccccc3o2)c1N` [PD98059], in [1], the “endosomal ROS production (OxyBURST)” value is recorded as “did not influence”. Further, in the data set on NOX2 oxidase, the “co-location (association)” value is “did not influence”.

RCNA-NH2: the “inhibition of TLR7 agonist, imiquimod” value with TLR7 [2] is recorded as “none”.

For RANC-NH2, the “inhibition of TLR7 agonist, imiquimod” value with TLR7 [2] was “none”.

`O=C(N/N=C/c1ccc(O)c(O)c1)c1cc2ccccc2cc1O` [Dynasore]: the “influenza nucleoprotein (NP) fluorescence” value in data set [4] is “almost abolished”. In addition, the “catalase-dependent increase in cytokines” value on TLR7 [3] (WT macrophages treated with Dynasore (100 μM)) was “significantly suppressed”. In addition, the “co-location (association)” value in the data set on NOX2 oxidase is listed as “reduced”.

As to `CC(C)C[C@H](NC(=O)[C@@H](NC(=O)[C@@H]1CCCN1C(=O)[C@@H](NC(=O)[C@H](CS)NC(=O)[C@H](CC(N)=O)NC(=O)[C@H](CS)NC(=O)[C@H](CCCNC(=N)N)NC(=O)[C@H](CC(C)C)NC(=O)[C@@H](N)CC(=O)O)C(C)C)C(C)C)C(N)=O` [C98i no TAT, DLRCNCVPVL-NH2] (H-DLRCNCVPVL-NH2), the cell viability result in data set [5] is on record as “no adverse effect”.

Take `CC(C)C[C@H](NC(=O)[C@@H](NC(=O)[C@@H]1CCCN1C(=O)[C@@H](NC(=O)[C@H](CS)NC(=O)[C@H](CC(N)=O)NC(=O)[C@H](CS)NC(=O)[C@H](CCCNC(=N)N)NC(=O)[C@H](CC(C)C)NC(=O)[C@H](CC(=O)O)NC(=O)[C@H](CCCNC(=N)N)NC(=O)[C@H](CCCNC(=N)N)NC(=O)[C@H](CCCNC(=N)N)NC(=O)[C@H](CCC(N)=O)NC(=O)[C@H](CCCNC(=N)N)NC(=O)[C@H](CCCNC(=N)N)NC(=O)[C@H](CCCCN)NC(=O)[C@H](CCCCN)NC(=O)[C@H](CCCNC(=N)N)NC(=O)CNC(=O)[C@@H](N)Cc1ccc(O)cc1)C(C)C)C(C)C)C(N)=O` [C98i] (H-YGRKKRRQRRRDLRCNCVPVL-NH2): the cell viability result in data set [5] is reported as “no adverse effect”.

As to “RCNC—NH2 (RCNC-NH2; cysteine pairing not given here)”, the “inhibition of TLR7 agonist, imiquimod” value in the data set with TLR7 [2] is reported as “none”.

`CC(C)Cn1cnc2c(N)nc3ccccc3c21` [imiquimod]: the “endosomal ROS production caused by the agonist” value in data set [1] and in [7] was “markedly increased endosomal ROS” throughout. The “cytosolic PKC activity” value in the data set with PKC is listed as “elevated cytosolic PKC activity”. For the same compound, the “cytosolic pERK1/2” value with pERK1/2 was “increased cytosolic pERK1/2”. In addition, in [6], the “macrophage mitochondrial superoxide production” value was “failed to increase”. Also, at TLR7 [3] (imiquimod alone, WT macrophages), the “IFN-β, IL-1β, TNF-α and IL-6 expression” value was “significant elevation”. The “lung IFN-β, IL-1β, IL-6 and TNF-α” value in the data set on TLR7 responses (NOX2−/y mice) is “elevated levels”. Besides, in the data set with TLR7 responses (WT and NOX2−/y mice), the airway inflammation result is on record as “no discernible alterations”.

Take catalase: on TLR7 [3] (1 hr pulse catalase 1000 U/mL, after 24 h, WT macrophages), the “IFN-β and IL-1β expression” value is on record as “significant elevations”. Further, the “IFN-β, IL-1β, TNF-α and IL-6 expression in response to imiquimod” value on TLR7 [3] (WT macrophages) is listed as “significantly increased”. In the data set on TLR7 [8], the “cytokine expression in cells expressing mutated TLR7” value is “little or no effect”. Moreover, the “TLR7, TREML4 or NLRP3 expression” value with TLR7 [8] (catalase) is reported as “no effect”. The “cytokine expression in cells with WT TLR7 or TLR7C445A” value in the data set with TLR7 [8] (catalase 1000 U/mL, transfected TLR7−/− macrophages) is recorded as “markedly increased”.
